Legend:
[1] = system: Sprague-Dawley rats fed fructose-rich diet; assay: Fructose-rich diet rat model (Reaven's model): blood pressure, serum triglycerides, insulin, body weight; format: in vivo; conditions: for effect on serum insulin levels: FIG. 5
Description: In the present study, the effects of CPSSA and captopril on blood pressure, as well as serum levels of triglycerides and insulin, were compared. RESULTS
Model Sprague-Dawley male rates, five rats/group, 220–240 g body weight, were fed with a fructose-rich diet for three weeks, followed by two weeks of treatment with either CPSSA or captopril predissolved in the drinking water in doses of CPSSA of 40 and 57 mg/kg and 80 mg/kg captopril, together with the fructose-rich diet. The control group was fed only the fructose-rich diet. Measurements of body weight, blood pressure, serum levels of triglycerides and insulin were conducted at 0, 3, and 5 weeks into the treatment.

[2] = target: T1, angiotensin converting enzyme (Homo sapiens, UniProt P12821); assay: Angiotensin converting enzyme activity in vitro in reference serum (Carmel et al 1979); format: biochemical; conditions: serial dilutions added to a reference serum; FIG. 2
T1 construct: from tissue
Description: The activity of angiotensin-converting enzyme was assayed according to Carmel et al (1979).
In order to determine if CPSSA reacts in a similar way to captopril, which inhibits the activity of angiotensin converting enzyme, serial dilutions of CPSSA were prepared.

papain = target: T2, papain (Carica papaya, UniProt P00784); assay: SH modification of papain (residual enzyme activity, benzoyl arginine-p-nitro anilide hydrolysis); format: biochemical
T2 sequence (P00784 134-345): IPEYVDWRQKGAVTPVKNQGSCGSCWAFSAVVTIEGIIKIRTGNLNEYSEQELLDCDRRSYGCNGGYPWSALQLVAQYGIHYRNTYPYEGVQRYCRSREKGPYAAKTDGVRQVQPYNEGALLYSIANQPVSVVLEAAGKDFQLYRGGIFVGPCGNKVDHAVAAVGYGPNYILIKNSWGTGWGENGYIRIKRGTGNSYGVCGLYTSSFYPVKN
Description: CPSSA (0–5 mM) modification of activated and gel-filtered papain was conducted at room temperature in 50 mM sodium acetate, 2 mM EDTA pH 6.1. The inhibited papain was reactivated with 5 mM reduced glutathione.
Activated papain was mixed with various concentrations of CPSSA for 10 minutes at room temperature in 50 mM sodium acetate, 2 mM EDTA buffer, pH 6.5. The residual enzyme activity was measured by monitoring the rate of hydrolysis of the substrate benzoyl arginine-p-nitro anilide at 382 nm.

[3] = two weeks in drinking water, CPSSA 40 and 57 mg/kg, captopril 80 mg/kg

T1 sequence (P12821 30-1232 limits assumed): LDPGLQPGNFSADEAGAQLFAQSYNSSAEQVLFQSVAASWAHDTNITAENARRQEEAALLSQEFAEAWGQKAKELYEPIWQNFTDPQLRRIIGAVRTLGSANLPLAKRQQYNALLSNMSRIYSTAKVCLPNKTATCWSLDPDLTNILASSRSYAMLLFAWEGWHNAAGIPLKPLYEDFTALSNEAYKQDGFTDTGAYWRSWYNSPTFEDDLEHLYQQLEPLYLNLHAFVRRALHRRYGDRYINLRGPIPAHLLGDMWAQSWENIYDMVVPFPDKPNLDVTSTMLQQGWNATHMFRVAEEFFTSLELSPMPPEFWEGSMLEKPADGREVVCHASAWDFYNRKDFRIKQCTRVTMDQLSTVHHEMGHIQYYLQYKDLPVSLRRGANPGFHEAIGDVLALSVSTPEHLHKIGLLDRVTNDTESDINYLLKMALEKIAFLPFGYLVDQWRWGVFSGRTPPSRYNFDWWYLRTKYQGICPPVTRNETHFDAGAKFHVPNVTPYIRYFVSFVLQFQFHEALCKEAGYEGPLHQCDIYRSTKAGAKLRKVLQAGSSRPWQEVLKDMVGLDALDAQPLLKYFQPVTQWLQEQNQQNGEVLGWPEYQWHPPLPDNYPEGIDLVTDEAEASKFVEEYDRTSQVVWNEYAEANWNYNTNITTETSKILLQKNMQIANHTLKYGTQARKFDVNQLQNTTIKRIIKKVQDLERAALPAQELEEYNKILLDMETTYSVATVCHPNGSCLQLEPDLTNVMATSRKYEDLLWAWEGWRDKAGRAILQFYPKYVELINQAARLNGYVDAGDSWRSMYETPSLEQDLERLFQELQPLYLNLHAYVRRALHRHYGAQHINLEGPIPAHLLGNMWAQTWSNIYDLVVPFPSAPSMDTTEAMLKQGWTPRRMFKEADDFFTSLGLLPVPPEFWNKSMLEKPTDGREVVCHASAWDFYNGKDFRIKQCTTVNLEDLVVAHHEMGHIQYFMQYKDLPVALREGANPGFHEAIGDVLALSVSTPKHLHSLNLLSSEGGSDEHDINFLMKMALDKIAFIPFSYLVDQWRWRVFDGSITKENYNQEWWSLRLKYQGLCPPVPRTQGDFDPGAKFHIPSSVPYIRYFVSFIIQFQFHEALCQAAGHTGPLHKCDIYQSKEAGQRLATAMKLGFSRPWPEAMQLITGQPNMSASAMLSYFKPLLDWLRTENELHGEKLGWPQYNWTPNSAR

SMILES	effect on body weight [1, 3]	effect on serum insulin levels [1, 3]	ACE inhibition profile compared with captopril [2]	inhibition of angiotensin converting enzyme activity [2]	activity in decreasing levels of triglycerides compared with captopril ([1]; CPSSA 40 and 57 mg/kg vs captopril 80 mg/kg, FIG. 4)	effect on blood pressure ([1]; two weeks in drinking water, CPSSA 40 and 57 mg/kg, captopril 80 mg/kg, FIG. 3)	effect on serum levels of triglycerides ([1]; two weeks in drinking water, CPSSA 40 and 57 mg/kg, captopril 80 mg/kg, FIG. 4)	reactivation of inactivated papain (papain; 5 mM reduced glutathione)	papain enzyme activity after incubation (papain; 10 minutes at room temperature, 50 mM sodium acetate, 2 mM EDTA, CPSSA 0-5 mM, FIG. 1)	degree of inhibition of papain (papain; various concentrations of CPSSA, FIG. 1)
C[C@H](CS)C(=O)N1CCC[C@H]1C(=O)O [captopril, D-3-mercapto-2-methylpropanoyl-L-proline]	No effects on body weight	decreased serum insulin levels to normal values	–	–	–	–	–	–	–	–
C=CCSSC[C@H](C)C(=O)N1CCC[C@H]1C(=O)O [CPSSA, S-allylmercaptocaptopril]	No effects on body weight	decreased serum insulin levels to normal values	essentially does not differ from the inhibition profile obtained with captopril	concentration dependant	more active than captopril	significantly decreased blood pressure	reduced the serum levels of triglycerides	could be restored by reduced glutathione	significant decrease of enzyme activity	concentration dependent
